Test results reported in PMC2248166, “Quantitative peptide binding motifs for 19 human and mouse MHC class I molecules derived using positional scanning combinatorial peptide libraries” (Immunome Research, 2008).
pIC50: −log10 of the molar value. Where a SMILES comes first, the peptide text is derived from it.

Each compound was assayed against HLA B*1503 (Homo sapiens, UniProt P01889, A329T/A93T/A95T/C349S/D201E/D98Y/E187L/E204Q/K202T/N87E/Q94N/R155S/R180L/S121R/S35A/V306I/V36M/Y140S/Y91S) (assay: biochemical).
Assay type: binding

Compound	pIC50
CC(C)C[C@H](NC(=O)[C@H](CO)NC(=O)[C@@H](NC(=O)[C@H](CCCNC(=N)N)NC(=O)[C@H](CO)NC(=O)[C@H](CC(C)C)NC(=O)[C@H](Cc1ccc(O)cc1)NC(=O)[C@H](CCC(N)=O)NC(=O)[C@@H](N)CO)C(C)C)C(=O)O [3102.1130] (H-SQYLSRVSL-OH)	9.62
CC(C)C[C@H](NC(=O)[C@H](CO)NC(=O)[C@H](CS)NC(=O)[C@@H](NC(=O)[C@H](Cc1ccccc1)NC(=O)[C@H](CCC(N)=O)NC(=O)[C@@H](N)CO)[C@@H](C)O)C(=O)N[C@@H](C)C(=O)N[C@H](C(=O)O)C(C)C [3102.1117] (H-SQFTCSLAV-OH)	8.82
CC(C)[C@H](NC(=O)[C@H](CCCCN)NC(=O)[C@@H](N)CCCCN)C(=O)N[C@@H](Cc1ccc(O)cc1)C(=O)N[C@H](C(=O)N[C@@H](Cc1ccccc1)C(=O)N[C@@H](Cc1ccccc1)C(=O)N[C@@H](CCCCN)C(=O)N[C@@H](Cc1ccccc1)C(=O)O)[C@@H](C)O [3102.1257] (H-KKVYTFFKF-OH)	8.44
CC(C)C[C@H](NC(=O)[C@H](Cc1ccccc1)NC(=O)[C@@H]1CCCN1C(=O)[C@H](CCCNC(=N)N)NC(=O)[C@@H](NC(=O)[C@H](CC(C)C)NC(=O)[C@@H](N)CCCNC(=N)N)C(C)C)C(=O)N[C@H](C(=O)N[C@H](C(=O)O)C(C)C)C(C)C [3102.1135] (H-RLVRPFLVV-OH)	7.80
CSCC[C@H](NC(=O)[C@H](CO)NC(=O)[C@H](Cc1ccccc1)NC(=O)[C@H](CC(N)=O)NC(=O)[C@@H](NC(=O)[C@H](CCSC)NC(=O)[C@@H](N)Cc1ccccc1)[C@@H](C)O)C(=O)N[C@H](C(=O)N[C@@H](Cc1ccc(O)cc1)C(=O)O)C(C)C [3102.1186] (H-FMTNFSMVY-OH)	8.64
CC[C@H](C)[C@H](N)C(=O)N[C@@H](CCCCN)C(=O)N[C@@H](CO)C(=O)N[C@@H](Cc1ccc(O)cc1)C(=O)N[C@H](C(=O)N[C@H](C(=O)N[C@@H](CCCNC(=N)N)C(=O)N[C@H](C(=O)N[C@@H](Cc1ccccc1)C(=O)O)C(C)C)[C@@H](C)CC)[C@@H](C)O [3102.1137] (H-IKSYTIRVF-OH)	8.80

The compounds below were run against HLA A*3001 (Homo sapiens, UniProt P04439, D140H/D185E/E176W/F33S/G80R/H175R/K168Q/R138E/R41S) (assay: biochemical).
Assay type: binding

HLA A*3001, sequence (P04439 25-365 limits assumed, stated change not applied): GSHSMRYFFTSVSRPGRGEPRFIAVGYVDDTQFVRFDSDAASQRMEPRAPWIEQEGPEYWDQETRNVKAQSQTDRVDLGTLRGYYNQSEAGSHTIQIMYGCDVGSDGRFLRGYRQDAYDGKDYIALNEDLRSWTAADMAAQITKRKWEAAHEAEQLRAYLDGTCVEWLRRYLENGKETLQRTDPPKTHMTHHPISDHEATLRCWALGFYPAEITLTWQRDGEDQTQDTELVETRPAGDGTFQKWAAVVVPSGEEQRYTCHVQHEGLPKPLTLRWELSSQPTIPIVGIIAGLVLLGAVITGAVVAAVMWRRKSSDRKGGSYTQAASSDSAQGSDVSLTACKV

Compound	pIC50
CC(C)C[C@H](NC(=O)[C@H](CO)NC(=O)[C@@H](N)CCCCN)C(=O)N[C@@H](Cc1ccc(O)cc1)C(=O)N[C@@H](CO)C(=O)N[C@@H](Cc1c[nH]cn1)C(=O)N[C@@H](CCC(N)=O)C(=O)N[C@@H](CC(C)C)C(=O)N[C@H](C(=O)O)C(C)C [3102.0103] (H-KSLYSHQLV-OH)	7.92
CC[C@H](C)[C@H](NC(=O)[C@@H]1CCCN1C(=O)[C@H](CCCCN)NC(=O)[C@@H](NC(=O)[C@@H](N)CCCNC(=N)N)[C@@H](C)O)C(=O)N[C@@H](CO)C(=O)N[C@@H](CCSC)C(=O)N[C@@H](Cc1ccc(O)cc1)C(=O)N[C@@H](Cc1ccccc1)C(=O)O [3102.0165] (H-RTKPISMYF-OH)	9.22
CSCC[C@H](NC(=O)[C@H](CO)NC(=O)[C@H](CCCNC(=N)N)NC(=O)[C@@H]1CCCN1C(=O)[C@H](Cc1ccccc1)NC(=O)[C@H](CCCCN)NC(=O)[C@H](CO)NC(=O)[C@@H](N)CCCCN)C(=O)N[C@@H](CC(C)C)C(=O)O [3102.0022] (H-KSKFPRSML-OH)	7.51
CC(C)C[C@H](NC(=O)[C@H](Cc1c[nH]c2ccccc12)NC(=O)[C@H](CCCCN)NC(=O)[C@@H](NC(=O)[C@@H](N)CCCCN)C(C)C)C(=O)N[C@@H](CCC(N)=O)C(=O)N[C@@H](CC(N)=O)C(=O)N[C@@H](CO)C(=O)N[C@H](C(=O)O)C(C)C [3102.0194] (H-KVKWLQNSV-OH)	9.30
CC(C)C[C@H](NC(=O)[C@H](C)NC(=O)[C@H](CCC(=O)O)NC(=O)[C@H](CCCNC(=N)N)NC(=O)[C@@H](NC(=O)[C@@H](N)CCCCN)C(C)C)C(=O)N[C@@H](CC(=O)O)C(=O)NCC(=O)N[C@H](C(=O)O)C(C)C [3102.0286] (H-KVREALDGV-OH)	9.96
CC[C@H](C)[C@H](NC(=O)[C@H](CCCNC(=N)N)NC(=O)CNC(=O)[C@@H](N)CCCCN)C(=O)N[C@@H](CO)C(=O)N[C@@H](Cc1ccc(O)cc1)C(=O)N[C@@H](Cc1ccc(O)cc1)C(=O)N[C@@H](CCC(=O)O)C(=O)N[C@@H](CCSC)C(=O)O [3102.0058] (H-KGRISYYEM-OH)	7.85
